Measured values published in patent publication US20240425457A1, “COMPOSITIONS AND METHODS FOR SUPPRESSING AND/OR TREATING METABOLIC DISEASES AND/OR A CLINICAL CONDITION THEREOF” (CK Biotech Inc., priority 2018, published 2024).
Entries after “also recorded” stand apart in the source; their conditions may differ. Where two headings read alike, the source gives them in different places. One block for each compound: values may come before it.

Legend:
CXXC5-DVL interaction [1] = molecular target: T1, CXXC5-DVL interaction (Homo sapiens, UniProt O14640); test: in vitro CXXC5-DVL PPI inhibition screening assay (FITC-tagged PTD-DBMP on DVL-PDZ, fluorescence); format: binding; settings: for inhibition at 30 µM: read-out: CXXC5-DVL inhibitory activity (%)
T1 sequence (O14640 251-323 limits assumed): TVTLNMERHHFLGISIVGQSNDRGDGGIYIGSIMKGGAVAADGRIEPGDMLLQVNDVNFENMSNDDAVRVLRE
Protocol: Screening for compounds that inhibit the CXXC5-DVL interaction. […] CELL. DEATH. DIFFER. […] After the addition of 10 μM FITC-tagged PTD-DBMP to each well, each compound in the chemical library or control (DMSO) was treated to the well at a final concentration of 30 μM. The fluorescence intensity was measured using a Fluorstar Optima microplate reader (BGM Lab Technologie, Ortenberg, Germany) and normalized as follows: “(‘compounds-treated group’−‘blank’)/(‘DMSO-treated control’−‘blank’)*100”.

CXXC5-DVL interaction [2] = molecular target: T1, CXXC5-DVL interaction; test: Dvl-CXXC5 in vitro binding assay, (PTD-DBMP)-(PZD-DVL), concentration dependent; settings: FIG. 33A-33C; unit inferred; read-out: IC50, in vitro (PTD-DBMP)-(PZD-DVL) binding analyses
Wnt/β-catenin signaling = Wnt/β-catenin signaling (TOPFlash) reporter luciferase assay in HEK293-TOP cells; format: cell-based
Protocol: Luciferase reporter assay. HEK293-TOP cells were seeded in 24-well plates. Cells were treated with A3334 at a concentration of 1, 5, and 10 μM for 24 h. Total cell lysates were extracted with 35 μl of 5× Reporter Lysis Buffer per well according to the manufacturer's instructions (Promega). A total of 35 μl of luciferin was added and luciferase activity was measured using a Fluorstar Optima microplate reader.
Wnt/β-catenin signaling reporter luciferase assay. HEK293-TOP cells were seeded were seeded in 96-well plates at a density of 2.5×10^4 cells per well. Cells were treated with individual chemicals at a concentration of 1, 5, 10 µM for 24 h. Total cell lysates were extracted with 25 µl of 5× Reporter Lysis Buffer per well according to the manufacturer's instruction (Promega, Madison, WI). Luciferin (25 µl) was added and luciferase activity was measured using FLUOSTAR (BMG labtech, Offenburg, Germany).

HFD-fed mice = test: HFD-induced obesity/diabetes mice, 5-day oral courses at weeks 8/9 and 12; format: in vivo; settings: HFD mice; for fasting glucose level / persistence of fasting glucose control after end of treatment: p.o. daily 5 days at weeks 8/9 and 12; for fasting glucose level: A3334, A3051, I3O 25, sitagliptin 50, metformin 100 mg/kg; for levels of GTT/ITT, total cholesterol, fasting glucose, triglyceride, FFAs in serum: A3334 25, metformin 100, sitagliptin 50 mpk (FIG. 38B-38F); for persistence of fasting glucose control after end of treatment: A3334 25, sitagliptin 50, metformin 100 mg/kg
Text: Animals. The generation of Cxxc5^−/− mice has been described previously. Cxxc5 heterozygous mice were intercrossed for four generations to obtain littermate wild-type and Cxxc5^−/− mice and were maintained on a C57BL/6 background. Six-week-old Cxxc5^+/+ and Cxxc5^−/− mice were fed HFD for 8 weeks. Wild-type male C57BL/6 mice (KOATECH, Seoul, Korea) were fed HFD consisting of 60% calories from fat (Research Diet, D12492) for 8 weeks. To validate that the insulin resistance mouse model was successfully established, fasting glucose levels were assessed with a One Touch Ultra glucometer (LifeScan). Subsequently, each HFD-fed mouse with a fasting glucose level higher than 16.7 mmol/L was orally administered A3334 (25 mg kg^−1), sitagliptin (50 mg kg^−1), or metformin (100 mg kg^−1) each day for 5 days at weeks 8 and 12. After the removal of the drugs, mice were maintained for 3 weeks on the HFD. To monitor pancreas regeneration, six-week-old Cxxc5^+/+ and Cxxc5^−/− mice were fed an HFD as above. After dietary treatment for 4 weeks, the mice were intraperitoneally injected with STZ (50 mg/kg/d) for 1 week and the control group were injected with saline. After 2 weeks, Cxxc5^+/+ mice were administered A3334 (25 mg kg^−1) and sitagliptin (50 mg kg^−1) per day by oral gavage for 4 weeks. For GTT or ITT, mice were injected with D-glucose (1.5 g/kg body weight) after overnight starvation or human insulin (0.75 units/kg body weight) after 4 h starvation, respectively. Tail blood was drawn at 0, 15, 30, 60, 120, 180 min intervals and blood glucose level was measured with a One Touch Ultra glucometer. All mice were maintained under temperature-controlled and light-controlled (standard 12 h light/dark cycle) conditions and provided with food and water ad libitum. All protocols were reviewed and approved by the Institutional Review Board of Severance Hospital, Yonsei University College of Medicine (09-013).
Blood chemistry. Total blood of mice was collected by cardiac puncture after fasting. The blood was allowed to clot for 30 min and was then centrifuged for 10 min at 1,000×g to obtain supernatant to measure metabolic parameters. ELISA assay kits were used to assess serum insulin (Millipore), serum FFA (Cayman Chemical), serum adiponectin (ABclonal). The insulin function test was evaluated by HOMA-IR and was calculated as fasting plasma glucose (m mol/l)×fasting serum insulin (mU/l)/22.5. Serum chemistry variables included total cholesterol, HDL-cholesterol, glucose, TG, ALT, AST, ALP, Ca, and Mg concentration. The calibration of serum parameters was performed using the quality control card supplied with the FUJI DRI-CHEM slides whenever slides from a new lot were used. […]
Hematoxylin and eosin (H&E) staining. Dissected tissues were fixed in 4% neutral paraformaldehyde and embedded in paraffin. The paraffin sections were cut at a thickness of 4 μm and subjected to H&E staining. The adipocyte cell size was measured in 20 randomly chosen microscopic areas from 3 independent animals using a Nikon bright-field optical microscope (Nikon TE-2000U). The average adipocyte size was determined using Image J software. […]
Metabolic monitoring and body composition. Metabolic performance (energy intake and energy expenditure) was studied using a PHENOMASTER automated combined indirect calorimetry system (TSE system GmBH). The mice were first acclimated for 24 h in a metabolic chamber and were provided with food and water. They were then subsequently evaluated for 3 days to measure oxygen consumption (VO2), carbon dioxide production (VCO2), ambulatory counts, and respiratory exchange ratio. An LF50 body composition analyzer (Bruker) was used to determine body composition (lean body mass and total body fat) of the mice. The temperature for these studies remained at 22° C., with a 12 h light/dark cycle. Standard in-house software was used for energy expenditure.
Quantitative real-time polymerase chain reaction (PCR). […]

HFD-induced obese mice = test: HFD-induced obese mice, oral administration during 16 weeks of HFD; format: in vivo; settings: HFD 16 weeks, 25 mpk oral
Protocol: Anti-obesity effects of […], a small molecule […] inhibitor. Referring now to FIG. 34, C57BL/6N mice were fed HFD for 16 weeks with or without oral administration of 25 mpk […] or Orlistat. Orlistat is an anti-obesity drug that is thought to act by limiting the absorption of fats from the diet (e.g., a lipase inhibitor). […] Referring now to FIG. 35, The C57BL/6N mice were grown with HFD for 16 weeks with or without oral administration of 25 mpk of […], […], and I3O. […] The increase in adipocyte cell sizes and enhancement of inflammation (evaluated by crown like structures; blue; FIG. 35B) were suppressed by treatment with […] in the HFD mice.

MCD-induced NASH mice = test: MCD diet-induced NASH mice; format: in vivo; settings: MCD diet 7 weeks, then 25 mg/kg daily oral gavage 3 weeks
Protocol: NASH study. Eight-week-old wild-type male C57BL/6N mice (KOATECH, Seoul, Korea) were fed on the methionine-choline deficient (MCD) diet for 7 weeks, followed by treatment with vehicle, A3334, A3051, or I3O of (25 mg kg^−1) sitagliptin (25 mg kg^−1) for another 3 weeks via daily oral gavage.
Collagen staining. 4 µm-liver tissues sections were stained using two common collagen staining methods. For Masson's trichrome staining, slides were fixed in Bouin's solution for 1 h. After incubation in Weigert's iron hematoxylin solution for 10 min, the slides were stained with Biebrich Scarlet-Acid Fuchsin and Aniline blue for 5 min. The collagen fibers were stained blue and the nuclei were stained black. For picrosirius red staining, sections were stained with Weigert's solution for 8 min and picrosirius red for 1 h. The collagen fibers were stained red with blue nuclei.

Structure (SMILES): O=C1Nc2ccccc2/C1=C1/Nc2ccccc2/C1=N\O [Compound I3O, Indirubin-3′-oxime, reference compound]
inhibition of CXXC5-DVL interaction (in words) (CXXC5-DVL interaction [1]): identified as initial hits
inhibition at 30 µM (CXXC5-DVL interaction [1]; 30 μM): 89%
inhibition of CXXC5-DVL interaction (in words) (CXXC5-DVL interaction [1]; listed as #12): repeatedly identified as CXXC5-DVL inhibitors
IC50 (CXXC5-DVL interaction [2]): 98.9 nM
Wnt/β-catenin (TOPFlash) reporter activity (Wnt/β-catenin signaling): showed effectiveness in the activation of Wnt/β-catenin pathway
fasting glucose level (HFD-fed mice): also reduced fasting glucose. However, effects of A3051 and I3O is similar to or little bit weaker than SITA
adipocyte cell size and inflammation (crown like structures) (HFD-induced obese mice): showed reduction in adipocyte size and anti-inflammatory effects, but those effects were lower when compared to that of the A3334 treatment
hepatosteatosis (H&E) (MCD-induced NASH mice): also reduced hepatosteatosis, but revealed only marginal effects compared to A3334

Structure (SMILES): CCN(CC)S(=O)(=O)c1ccc(OC)c(Nc2cc(-c3ccccc3)nc(C)n2)c1 [Compound 6]
inhibition at 30 µM (CXXC5-DVL interaction [1]; 30 μM): 58.2%

Structure (SMILES): O=C(O)C1Sc2[nH]c(=O)sc2C2c3cc(Br)cc(Br)c3OC(=O)C12 (stereo not shown) [Compound 5]
inhibition at 30 µM (CXXC5-DVL interaction [1]; 30 μM): 90.5%

Structure (SMILES): COC(=O)C1=C(C)N/C(=C/c2cc(C)n(-c3ccccc3F)c2C)C1=O [Compound 4]
inhibition at 30 µM (CXXC5-DVL interaction [1]; 30 μM): 87.6%

Structure (SMILES): Cc1cc(C)c2c(O)nc(SCC(=O)c3ccc(O)c(O)c3)nc2n1 [Compound 3]
inhibition at 30 µM (CXXC5-DVL interaction [1]; 30 μM): 88.2%

Structure (SMILES): COc1ccc(C2CC(C(F)(F)F)n3ncc(C(=O)O)c3N2)cc1OC (stereo not shown) [Compound 2]
inhibition at 30 µM (CXXC5-DVL interaction [1]; 30 μM): 90.6%

Structure (SMILES): N[C@@H](CC(=O)N1CCn2c(nnc2C(F)(F)F)C1)Cc1cc(F)c(F)cc1F [sitagliptin, reference compound]
mRNA of M1 and M2 macrophage marker genes in epiWAT (HFD-fed mice): did not significantly change the expression of inflammation or the Wnt/β-catenin signaling target genes
serum ALT, AST, FFA (and TG) (HFD-fed mice): weakly reduced by SITA even at a higher concentration
levels of GTT/ITT, total cholesterol, fasting glucose, triglyceride, FFAs in serum (HFD-fed mice): weaker than those of A3333
hepatic steatosis (lipid droplets, fatty liver, hepatic TG) (HFD-fed mice; H&E, Oil Red O): exhibited only a marginal effect
Wnt/β-catenin target genes and lipogenesis/inflammation genes in white adipose tissue (HFD-fed mice; mRNA): did not significantly change the expression of inflammation or the Wnt/β-catenin signaling target genes
lipogenesis and gluconeogenesis genes in liver (HFD-fed mice; mRNA): reduced by both A3334 and SITA, but A3334 showed better effectiveness
persistence of fasting glucose control after end of treatment (HFD-fed mice): this prolonged effect was not shown; also recorded: showed an increased fasting glucose level after their second application
fasting glucose level (HFD-fed mice): reduced similarly by treatment with all of these compounds at initial applications
hepatosteatosis (H&E) (MCD-induced NASH mice): also reduced hepatosteatosis, but revealed only marginal effects compared to A3334

Structure (SMILES): CN1CCc2cc(O)cc3c2[C@H]1Cc1ccc(O)c(O)c1-3 [Compound 9]
inhibition at 30 µM (CXXC5-DVL interaction [1]; 30 μM): 89.4%

Structure (SMILES): CN(C)C(=N)N=C(N)N [metformin, reference compound]
serum ALT, AST, FFA (and TG) (HFD-fed mice): increased by metformin
levels of GTT/ITT, total cholesterol, fasting glucose, triglyceride, FFAs in serum (HFD-fed mice): weaker than those of A3333
persistence of fasting glucose control after end of treatment (HFD-fed mice): this prolonged effect was not shown; also recorded: showed an increased fasting glucose level after their second application
fasting glucose level (HFD-fed mice): reduced similarly by treatment with all of these compounds at initial applications

Structure (SMILES): COc1ccc(C)cc1/N=N/c1ccc(O)c2nc(/C=N/O)ccc12 [Compound 1]
inhibition at 30 µM (CXXC5-DVL interaction [1]; 30 μM): 85.2%

Structure (SMILES): NC(Cc1cc(O)c(O)cc1O)C(=O)O (stereo not shown) [Compound 10]
inhibition at 30 µM (CXXC5-DVL interaction [1]): 90.3%

Continued, values first:

inhibition at 30 µM (CXXC5-DVL interaction [1]; 30 μM): 85.4%
Structure (SMILES): O=c1c(O)c(-c2ccc(O)cc2O)oc2cc(O)cc(O)c12 [Compound 15]

inhibition at 30 µM (CXXC5-DVL interaction [1]; 30 μM): 85.2%
Structure (SMILES): O=c1c(O)c(-c2cc(O)c(O)c(O)c2)oc2cc(O)cc(O)c12 [Compound 13]

inhibition at 30 µM (CXXC5-DVL interaction [1]; 30 μM): 90.9%
Structure (SMILES): COc1ccc(C2CC(=O)C3=C(C2)Nc2onc(C)c2C3c2ccc(O)c(O)c2)cc1OC (stereo not shown) [Compound 7]

inhibition at 30 µM (CXXC5-DVL interaction [1]; 30 μM): 86.8%
Structure (SMILES): O=C(OCCN1CCOCC1)C1(c2ccccc2)CCCCC1 [Compound 18]

inhibition at 30 µM (CXXC5-DVL interaction [1]): 87.9%
Structure (SMILES): CN(C)c1ccc(O)c2c1C[C@H]1C[C@H]3[C@H](N(C)C)C(O)=C(C(N)=O)C(=O)[C@@]3(O)C(O)=C1C2=O [Compound 16]

inhibition at 30 µM (CXXC5-DVL interaction [1]; 30 μM): 90%
Structure (SMILES): O=c1cc(O)cc(/C=C/c2ccc(O)c(O)c2)o1 [Compound 11]

inhibition at 30 µM (CXXC5-DVL interaction [1]; 30 μM): 85.2%
Structure (SMILES): Oc1cc(O)cc(/C=C/c2ccc(O)c(O)c2)c1 [Compound 17]

inhibition at 30 µM (CXXC5-DVL interaction [1]; 30 μM): 85.2%
Structure (SMILES): CC(N)(Cc1ccc(O)c(O)c1)C(=O)O (stereo not shown) [Compound 14]
